The record followed here is patent publication US20180369211A1, “METHODS AND COMPOSITIONS FOR TREATING NEURODEGENERATIVE DISORDERS” (Lysosomal Therapeutics Inc., priority 2016, published 2018).

The target of this assay is T1, acid ceramidase (Homo sapiens, UniProt Q13510).
T1 construct: host or cells: unnamed cells; lysate 'enriched with acid ceramidase'
T1 sequence (Q13510 22-395): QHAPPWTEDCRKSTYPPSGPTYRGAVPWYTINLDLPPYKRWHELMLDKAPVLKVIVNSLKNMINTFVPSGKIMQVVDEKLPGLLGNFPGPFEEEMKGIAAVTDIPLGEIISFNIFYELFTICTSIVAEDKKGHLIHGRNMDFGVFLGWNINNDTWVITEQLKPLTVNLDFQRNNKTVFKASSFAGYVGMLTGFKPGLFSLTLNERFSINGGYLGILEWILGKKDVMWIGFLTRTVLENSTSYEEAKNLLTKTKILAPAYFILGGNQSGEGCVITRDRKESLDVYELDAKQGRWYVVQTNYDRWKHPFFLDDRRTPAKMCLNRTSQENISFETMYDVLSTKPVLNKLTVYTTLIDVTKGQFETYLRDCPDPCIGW
The assay is described as follows: acid ceramidase fluorescent intensity assay with fluorogenic substrate Rbm 14-12. Particulars: cell lysates enriched with acid ceramidase, 1 hour pre-incubation, pH 4.5, substrate Rbm 14-12 at 6.3 μM, room temperature, 1 or two hours; read-out: average IC50 value for the 1 and 2 hour time points. Format: biochemical. As for the experimental part: Inhibition of acid ceramidase activity by compound 25 of Table 1 was evaluated in a fluorescent intensity assay using a fluorogenic substrate Rbm 14-12 […]. Compound 25 was incubated with cell lysates enriched with acid ceramidase for 1 hour in an assay buffer containing 50 mM NaOAc and 100 mM NaCl at pH 4.5. The reaction was initiated by the addition of the substrate at a final concentration of 6.3 μM and the mixture was incubated at room temperature for 1 or two hours. At the appropriate time, the reaction was quenched by the addition of methanol and treated with NaIO4 (fresh 2.5 mg/ml solution was made in 100 mM glycine/NaOH buffer, pH 10.6), followed by incubation for 1 hour at room temperature. Fluorescent intensity was measured using a plate reader at ex 355 nm and em 460 nm.

The IC50 is the concentration that gives 50% inhibition. For the compound `O=C(NCCCCc1ccccc1)n1c(=O)oc2cc(-c3ccc(F)cc3)ccc21` [compound 25, 6-(4-fluorophenyl)-2-oxo-N-(4-phenylbutyl)-1,3-benzoxazole-3-carboxamide], the half-inhibitory concentration (IC50) lay in the range of 250 to 500 nM.
